pIC50, pKi: −log10 of the molar value.
Target: Endothelin-1 receptor (Rattus norvegicus) (UniProt P26684)
Test: Ability to inhibit [125I]ET1 binding to vascular smooth muscle (vsm)- A10 cells

Sequence of Endothelin-1 receptor (Rattus norvegicus) (P26684 whole entry, looked up): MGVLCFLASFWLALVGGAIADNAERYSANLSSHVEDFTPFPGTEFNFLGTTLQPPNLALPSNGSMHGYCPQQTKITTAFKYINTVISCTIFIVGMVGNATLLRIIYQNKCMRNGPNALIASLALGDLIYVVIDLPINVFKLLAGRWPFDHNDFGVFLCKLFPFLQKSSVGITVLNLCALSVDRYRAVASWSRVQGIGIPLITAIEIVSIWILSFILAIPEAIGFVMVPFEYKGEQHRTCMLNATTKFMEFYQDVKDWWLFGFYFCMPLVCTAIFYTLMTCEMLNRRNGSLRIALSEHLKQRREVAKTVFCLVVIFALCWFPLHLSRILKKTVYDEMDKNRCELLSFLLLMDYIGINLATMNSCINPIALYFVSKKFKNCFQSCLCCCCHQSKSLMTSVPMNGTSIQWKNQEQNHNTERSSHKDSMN

pIC50	Compound
4.55	Cc1cc(NS(=O)(=O)c2ccc(N)cc2)on1 [4-Amino-N-(3-methyl-isoxazol-5-yl)-benzenesulfonamide]
5.01	Cc1noc(NS(=O)(=O)c2ccc(NCc3ccccc3)cc2)c1C [4-Benzylamino-N-(3,4-dimethyl-isoxazol-5-yl)-benzenesulfonamide]
< 4.49	Cc1noc(NS(=O)(=O)c2ccc(C#N)cc2)c1C [4-Cyano-N-(3,4-dimethyl-isoxazol-5-yl)-benzenesulfonamide]
4.08	Cc1noc(NS(=O)(=O)c2ccc(N(C)C)cc2)c1C [4-Dimethylamino-N-(3,4-dimethyl-isoxazol-5-yl)-benzenesulfonamide]
5.55	Cc1noc(NS(=O)(=O)c2cccc3c(CN(C)C)cccc23)c1C [5-Dimethylaminomethyl-naphthalene-1-sulfonic acid (3,4-dimethyl-isoxazol-5-yl)-amide]
4.57	CCCNc1ccc(S(=O)(=O)Nc2onc(C)c2C)cc1 [N-(3,4-Dimethyl-isoxazol-5-yl)-4-propylamino-benzenesulfonamide]

Target: not listed separately
Test: Selectivity for the ET-A receptor over ETB receptor was observed in rat cerebellar membranes

pKi	Compound
< 3.70	Cc1noc(NS(=O)(=O)c2cccc3c(N(C)C)cccc23)c1C [BMS-182874]

Source: BindingDB's records for doi:10.1021/jm00029a001 (Bristol-Myers Squibb Pharmaceutical Research Institute, 1994)
